# Species on record: Rattus norvegicus
# Assay: Dose-dependent inhibition of calcium contraction in depolarized rat aortic strips.
# Type: functional, organism-based
# Settings: Aorta
row,SMILES,IC50 [µM]
1,CCOC(=O)[C@H]1[C@H]2/C(=C(\O)OCC)C(C)=N[C@]1(C)Sc1cc([N+](=O)[O-])ccc12,> 100

# Species on record: Rattus norvegicus
# Assay: Dose-dependent inhibition of calcium contraction in depolarized rat aortic strips
# Type: functional, organism-based
# Settings: Aorta
row,SMILES,IC50 [µM]
1,CCOC(=O)[C@H]1[C@H]2/C(=C(\O)OCC)C(C)=N[C@]1(C)Sc1ccc([N+](=O)[O-])cc12,3.4
2,CCOC(=O)C1=C(C)NC(C)=C(C(=O)OC)C1c1cccc([N+](=O)[O-])c1 (configuration not stated) [NITRENDIPINE],0.0031
3,CCOC(=O)C1=C(C)N=C(C)/C(=C(/O)OCC)C1c1cccc([N+](=O)[O-])c1SC (configuration not stated),0.0058
4,CCOC(=O)[C@H]1[C@H]2/C(=C(\O)OCC)C(C)=N[C@]1(C)Sc1c2cccc1[N+](=O)[O-],23
5,CCOC(=O)C1=C(C)N=C(C)/C(=C(/O)OCC)C1c1cc([N+](=O)[O-])ccc1SC (configuration not stated),0.13
6,COC(=O)C1=C(C)NC(C)=C(C(=O)OC)C1c1ccccc1[N+](=O)[O-] [NIFEDIPINE],0.0088
7,CCOC(=O)[C@@H]1[C@H]2/C(=C(\O)OCC)C(C)=N[C@]1(C)Sc1ccc([N+](=O)[O-])cc12,0.031
8,CCOC(=O)[C@@H]1[C@H]2/C(=C(\O)OCC)C(C)=N[C@]1(C)Sc1ccccc12,1.2
9,CCOC(=O)[C@@H]1[C@H]2/C(=C(\O)OCC)C(C)=N[C@]1(C)Sc1cc([N+](=O)[O-])ccc12,14
10,CCOC(=O)[C@@H]1[C@H]2/C(=C(\O)OCC)C(C)=N[C@]1(C)Sc1c2cccc1[N+](=O)[O-],3.7
11,CCOC(=O)[C@H]1[C@H]2/C(=C(\O)OCC)C(C)=N[C@]1(C)Sc1ccccc12,22
